Read-outs that look alike come from different tables or passages of the source.
What was measured:
[1] = UV-Vis absorption spectrum (anti-UVA and blue light properties); format: physicochemical; design: λmax: unit not given here
Text: Un spectre UV-Vis a été réalisé dans l'éthanol à 10^-5 mol/L pour les composés 1 à 7, qui sont des dérivés furaniques de l'acide de Medrum. L'Avobenzone, une molécule très largement utilisée comme filtre UVA dans les crèmes solaires, a été utilisée en tant que référence.
Cette méthodologie a été employée pour évaluer les propriétés anti-UV des composés 8 à 11, qui sont des dérivés phénoliques de l'acide de Medrum, des composés 12 à 15 qui sont des dérivés pyrroliques de l'acide de Meldrum, des composés 16 à 18 qui sont des dérivés vinylphénol de l'acide de Meldrum, le composé 19 qui est un dérivé vinylfurane de l'acide de Meldrum.

[2] = Photostability under UV exposure; format: physicochemical; details: for A (t=0 min): absorbance before UV exposure
Text: La stabilité des composés 1 à 7 aux UV a été étudiée par soumission à une exposition (λ : 300 nm, P : 8.32 W/m^2) pendant une heure.
L'Avobenzone a été utilisée comme molécule de référence. Cette molécule est connue pour être […] sous exposition UV, ce qui n'est pas du tout le cas d'autres composés bio-sourcés.
La photostabilité des composés 8 à 11 a également été étudiée, de manière identique au test appliqué aux composés 1 à 7. Les résultats obtenus sont présentés dans le Tableau 2. […] Cette méthodologie a été appliquée à l'ensemble des molécules décrites ci-dessus. Tableau 2 : Stabilité des composés 8 à 11 soumis à une exposition aux UV.

[3] = biological target: T1, ERα (récepteur œstrogène alpha) (Homo sapiens, UniProt P03372); assay: Endocrine system: receptor activity in presence of compound and reference molecule (antagonist effect); format: cell-based; details: Figure 7; with reference molecule; even at the highest concentrations
T1 sequence (P03372 1-595): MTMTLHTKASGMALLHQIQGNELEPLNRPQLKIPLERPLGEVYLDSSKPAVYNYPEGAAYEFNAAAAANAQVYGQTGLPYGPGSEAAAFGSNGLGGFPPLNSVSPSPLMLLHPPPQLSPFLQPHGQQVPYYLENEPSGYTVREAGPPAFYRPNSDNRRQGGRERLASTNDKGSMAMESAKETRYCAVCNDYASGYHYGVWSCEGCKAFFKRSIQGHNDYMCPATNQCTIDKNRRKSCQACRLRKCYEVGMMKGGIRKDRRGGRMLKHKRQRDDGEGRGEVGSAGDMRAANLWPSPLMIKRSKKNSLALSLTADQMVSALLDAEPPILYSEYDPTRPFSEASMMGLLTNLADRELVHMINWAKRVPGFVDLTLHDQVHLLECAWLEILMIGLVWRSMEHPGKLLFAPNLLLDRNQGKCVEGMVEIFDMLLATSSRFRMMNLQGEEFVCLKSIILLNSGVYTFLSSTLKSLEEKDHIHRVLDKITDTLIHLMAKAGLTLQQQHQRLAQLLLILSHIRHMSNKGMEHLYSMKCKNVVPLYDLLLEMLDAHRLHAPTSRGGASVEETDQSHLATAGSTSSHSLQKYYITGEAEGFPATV
Text: (§1) L'effet des composés 1 et 4 sur le système endocrinien a été évalué pour leurs propriétés agonistes et antagonistes sur différents récepteurs : ERα (récepteur œstrogène alpha), AR (récepteur des androgènes) et PXR (pregnane X receptor). Un premier test consiste à étudier l'activité des récepteurs en présence du composé 1 ou 4 (effet agoniste). […] Un second test vise à l'étude de l'activité des récepteurs en présence du composé 1 ou 4 et d'une molécule de référence pour chaque récepteur (effet antagoniste).

[4] = biological target: T2, PXR (pregnane X receptor) (Homo sapiens, UniProt O75469); assay: as above; format: cell-based; details: Figure 9; with reference molecule; even at the highest concentrations
T2 sequence (O75469 1-434): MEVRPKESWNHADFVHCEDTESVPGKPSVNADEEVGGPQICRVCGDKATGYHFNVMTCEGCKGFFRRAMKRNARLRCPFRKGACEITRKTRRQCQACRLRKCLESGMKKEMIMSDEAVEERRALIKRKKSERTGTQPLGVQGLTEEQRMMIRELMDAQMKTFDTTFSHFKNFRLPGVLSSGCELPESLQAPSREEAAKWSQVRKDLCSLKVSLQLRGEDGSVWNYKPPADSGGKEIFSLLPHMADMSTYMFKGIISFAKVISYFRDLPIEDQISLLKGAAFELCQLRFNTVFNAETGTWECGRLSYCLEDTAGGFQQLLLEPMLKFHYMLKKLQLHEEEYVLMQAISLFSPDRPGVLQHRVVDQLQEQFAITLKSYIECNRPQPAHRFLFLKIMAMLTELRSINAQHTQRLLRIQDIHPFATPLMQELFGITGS
Text: as §1

[5] = biological target: T3, AR (récepteur des androgènes) (Homo sapiens, UniProt P10275); assay: as above; format: cell-based; details: Figure 8; with reference molecule; even at the highest concentrations
T3 sequence (P10275 1-920): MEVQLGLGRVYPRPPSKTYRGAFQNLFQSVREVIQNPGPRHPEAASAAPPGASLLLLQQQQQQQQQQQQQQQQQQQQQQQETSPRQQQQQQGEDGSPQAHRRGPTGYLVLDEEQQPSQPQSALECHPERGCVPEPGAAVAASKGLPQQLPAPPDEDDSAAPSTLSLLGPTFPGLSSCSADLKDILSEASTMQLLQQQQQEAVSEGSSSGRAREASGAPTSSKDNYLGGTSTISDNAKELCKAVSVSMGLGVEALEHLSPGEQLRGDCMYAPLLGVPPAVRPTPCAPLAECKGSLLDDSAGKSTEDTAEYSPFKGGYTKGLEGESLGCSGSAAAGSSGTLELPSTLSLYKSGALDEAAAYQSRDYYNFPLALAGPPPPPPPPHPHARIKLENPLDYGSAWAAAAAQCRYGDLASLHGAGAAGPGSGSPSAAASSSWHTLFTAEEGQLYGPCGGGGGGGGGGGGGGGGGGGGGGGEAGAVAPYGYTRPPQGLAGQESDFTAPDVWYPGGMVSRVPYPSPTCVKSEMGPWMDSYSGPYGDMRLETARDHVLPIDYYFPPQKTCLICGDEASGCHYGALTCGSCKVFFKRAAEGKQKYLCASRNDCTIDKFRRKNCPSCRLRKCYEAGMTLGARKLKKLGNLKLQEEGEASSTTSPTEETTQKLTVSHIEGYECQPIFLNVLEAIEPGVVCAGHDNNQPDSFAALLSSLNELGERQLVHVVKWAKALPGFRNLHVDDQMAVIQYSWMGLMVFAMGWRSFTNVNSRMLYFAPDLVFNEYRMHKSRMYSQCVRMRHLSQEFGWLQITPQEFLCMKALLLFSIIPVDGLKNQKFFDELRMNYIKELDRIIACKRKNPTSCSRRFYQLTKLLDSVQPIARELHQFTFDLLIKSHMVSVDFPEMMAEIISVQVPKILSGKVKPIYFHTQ
Text: as §1

[6] = biological target: T1, ERα (récepteur œstrogène alpha); assay: Endocrine system: receptor activity in presence of compound (agonist effect); format: cell-based; details: Figure 6, C = 10 µM; even at the highest concentrations
Text: as §1

[7] = biological target: T2, PXR (pregnane X receptor); assay: as above; format: cell-based; details: Figure 6, C = 10 µM; even at the highest concentrations
Text: as §1

[8] = biological target: T3, AR (récepteur des androgènes); assay: as above; format: cell-based; details: Figure 6, C = 10 µM; even at the highest concentrations
Text: as §1

[9] = Antioxidant properties (IC50 compared with BHA and BHT); format: biochemical
Text: Les propriétés anti-oxydantes des composés 8 à 11 ont été évaluées par comparaison de leur IC50 avec celles de deux molécules de référence que sont la BHA et le BHT. Ces deux molécules sont très largement utilisées dans les formulations cosmétiques bien qu'elles soient controversées pour leur effet potentiellement cancérigène.

[10] = Tableau 1, UV exposure λ 300 nm, P 8.32 W/m^2, one hour
[11] = read-out: IC50 (nmol); antioxidant properties
[12] = Tableau 2, same test as for compounds 1 to 7 (λ 300 nm, P 8.32 W/m^2, one hour)

Structure (SMILES): Cc1cc(C=C2C(=O)OC(C)(C)OC2=O)oc1C [compound 2, 5-[(4,5-Dimethyl-2-furanyl)methylene]-2,2-dimethyl-1,3-dioxane-4,6-dione]
- λmax ([1]; Tableau 1): 400
- Perte d'activité (%) [2, 10]: < 5%
- Perte d'activité (%) ([2]; Tableau 1, UV exposure λ 300 nm, P 8.32 W/m^2, one hour, listed as Composé (2)): 4,2%
- A (t=0 min) ([2]; Tableau 1): 0,37961

Structure (SMILES): CC1(C)OC(=O)C(=Cc2ccco2)C(=O)O1 [Composé 1, 5-(2-Furanylmethylene)-2,2-dimethyl-1,3-dioxane-4,6-dione]
- effet antagoniste sur le récepteur ERα [3]: n'empêchent pas l'activité des récepteurs envers les molécules de référence
- effet antagoniste sur le récepteur PXR [4]: n'empêchent pas l'activité des récepteurs envers les molécules de référence
- effet antagoniste sur le récepteur AR [5]: n'empêchent pas l'activité des récepteurs envers les molécules de référence
- effet agoniste (activité du récepteur ERα) [6]: n'induisent pas une activité anormale des récepteurs
- effet agoniste (activité du récepteur PXR) [7]: n'induisent pas une activité anormale des récepteurs
- effet agoniste (activité du récepteur AR) [8]: n'induisent pas une activité anormale des récepteurs
- λmax ([1]; Tableau 1): 361
- Perte d'activité (%) [2, 10]: < 5%
- Perte d'activité (%) ([2]; Tableau 1, UV exposure λ 300 nm, P 8.32 W/m^2, one hour, listed as Composé (1)): 3.5%
- A (t=0 min) ([2]; Tableau 1): 0.3381

Structure (SMILES): COc1ccc(O)c(C(C)(C)C)c1 [BHA, reference compound]
- IC50 [9, 11]: 6.51 nmol

Structure (SMILES): COc1ccc(C(=O)CC(=O)c2ccc(C(C)(C)C)cc2)cc1 [Avobenzone, reference compound]
- λmax ([1]; Tableau 1): 350
- Perte d'activité (%) [2, 10]: 0,6%
- A (t=0 min) ([2]; Tableau 1): 0,36735

Structure (SMILES): CC(=O)OCc1ccc(C=C2C(=O)OC(C)(C)OC2=O)o1 [compound 6, 5-[[5-((Acetyloxy)methyl)-2-furanyl]methylene]-2,2-dimethyl-1,3-dioxane-4,6-dione]
- λmax ([1]; Tableau 1): 366
- Perte d'activité (%) [2, 10]: 12,0%
- A (t=0 min) ([2]; Tableau 1): 0,28728

Structure (SMILES): CCc1ccc(C=C2C(=O)OC(C)(C)OC2=O)o1 [compound 3, 5-[(5-Ethyl-2-furanyl)methylene]-2,2-dimethyl-1,3-dioxane-4,6-dione]
- λmax ([1]; Tableau 1): 374
- Perte d'activité (%) [2, 10]: < 5%
- Perte d'activité (%) ([2]; Tableau 1, UV exposure λ 300 nm, P 8.32 W/m^2, one hour, listed as Composé (3)): 5,1%
- A (t=0 min) ([2]; Tableau 1): 0,31307

Structure (SMILES): CC1(C)OC(=O)C(=CC=Cc2ccco2)C(=O)O1 [compound 19, 5-[3-(2-furanyl)-2-propen-1-ylidene]-2,2-dimethyl-1,3-Dioxane-4,6-dione]
- absorption UVA et lumière bleue (spectre UV-Vis) ([1]; in ethanol at 10^-5 mol/L, Figure 2): comparables à ceux obtenus avec les composés 1 à 7

Structure (SMILES): CC1(C)OC(=O)C(=Cc2ccc(O)c(O)c2)C(=O)O1 [Composé 9]
- IC50 [9, 11]: 2.9 nmol
- capacité antioxydante ([9]; result in words): remarquables
- λmax ([1]; Tableau 2): 398
- A (t=0 min) ([2]; Tableau 2): 0,26515
- Perte d'activité (%) [2, 12]: 6,37%

Structure (SMILES): COc1cc(C=C2C(=O)OC(C)(C)OC2=O)cc(OC)c1O
- IC50 ([9]; antioxidant properties; read-out: IC50 (nmol)): 3.58 nM
- capacité antioxydante ([9]; result in words): remarquables
- λmax ([1]; Tableau 2): 405
- A (t=0 min) ([2]; Tableau 2): 0,24614
- Perte d'activité (%) [2, 12]: 11,43%

Structure (SMILES): Cc1cc(C(C)(C)C)c(O)c(C(C)(C)C)c1 [BHT, reference compound]
- IC50 [9, 11]: 13.1 nmol

Structure (SMILES): CC1(C)OC(=O)C(=Cc2cc3ccccc3o2)C(=O)O1 [compound 5, 5-(2-benzofuranylmethylene)-2,2-dimethyl-1,3-dioxane-4,6-dione]
- λmax ([1]; Tableau 1): 386
- Perte d'activité (%) [2, 10]: 28,7%
- A (t=0 min) ([2]; Tableau 1): 0,32310

Structure (SMILES): CC1(C)OC(=O)C(=Cc2ccc(C=C3C(=O)OC(C)(C)OC3=O)o2)C(=O)O1 [compound 7, 5,5'-(2,5-furandiyldimethylidyne)bis-2,2-dimethyl-1,3-dioxane-4,6-dione]
- λmax ([1]; Tableau 1): 406 - 426
- Perte d'activité (%) [2, 10]: 12,4%
- A (t=0 min) ([2]; Tableau 1): 0,47642

Structure (SMILES): CC1(C)OC(=O)C(=Cc2ccc(O)cc2)C(=O)O1 [Composé 10, 5-(4-Hydroxybenzylidene)-2,2-dimethyl-1,3-dioxane-4,6-dione]
- IC50 (nmol) ([9]; antioxidant properties): Pas d'effet
- λmax ([1]; Tableau 2): 374
- A (t=0 min) ([2]; Tableau 2): 0,29431
- Perte d'activité (%) [2, 12]: 3,47%

Source: patent EP4061322B1 (Institut des Sciences et Industries du Vivant et de …, priority 2019, dated 2021)
